According to paper PMC3069647 (Journal of medicinal chemistry, 2011):
pIC50: −log10 of the molar value.

What was measured:
human Pgp [1] = target: T1, human Pgp (Homo sapiens, UniProt P08183); assay: Inhibition of Pgp-mediated Rhodamine 123 efflux in L5178 MDR1 cells; conditions: mouse T lymphoma L5178 MDR1 cells
Pgp = conditions: cited from earlier work
human Pgp [2] = assay: Inhibition of Pgp-mediated Rhodamine 123 efflux in L5178 MDR1 cells; conditions: mouse T lymphoma L5178 MDR1 cells
human Pgp [3] = target: T1, human Pgp

T1 sequence (P08183 whole entry): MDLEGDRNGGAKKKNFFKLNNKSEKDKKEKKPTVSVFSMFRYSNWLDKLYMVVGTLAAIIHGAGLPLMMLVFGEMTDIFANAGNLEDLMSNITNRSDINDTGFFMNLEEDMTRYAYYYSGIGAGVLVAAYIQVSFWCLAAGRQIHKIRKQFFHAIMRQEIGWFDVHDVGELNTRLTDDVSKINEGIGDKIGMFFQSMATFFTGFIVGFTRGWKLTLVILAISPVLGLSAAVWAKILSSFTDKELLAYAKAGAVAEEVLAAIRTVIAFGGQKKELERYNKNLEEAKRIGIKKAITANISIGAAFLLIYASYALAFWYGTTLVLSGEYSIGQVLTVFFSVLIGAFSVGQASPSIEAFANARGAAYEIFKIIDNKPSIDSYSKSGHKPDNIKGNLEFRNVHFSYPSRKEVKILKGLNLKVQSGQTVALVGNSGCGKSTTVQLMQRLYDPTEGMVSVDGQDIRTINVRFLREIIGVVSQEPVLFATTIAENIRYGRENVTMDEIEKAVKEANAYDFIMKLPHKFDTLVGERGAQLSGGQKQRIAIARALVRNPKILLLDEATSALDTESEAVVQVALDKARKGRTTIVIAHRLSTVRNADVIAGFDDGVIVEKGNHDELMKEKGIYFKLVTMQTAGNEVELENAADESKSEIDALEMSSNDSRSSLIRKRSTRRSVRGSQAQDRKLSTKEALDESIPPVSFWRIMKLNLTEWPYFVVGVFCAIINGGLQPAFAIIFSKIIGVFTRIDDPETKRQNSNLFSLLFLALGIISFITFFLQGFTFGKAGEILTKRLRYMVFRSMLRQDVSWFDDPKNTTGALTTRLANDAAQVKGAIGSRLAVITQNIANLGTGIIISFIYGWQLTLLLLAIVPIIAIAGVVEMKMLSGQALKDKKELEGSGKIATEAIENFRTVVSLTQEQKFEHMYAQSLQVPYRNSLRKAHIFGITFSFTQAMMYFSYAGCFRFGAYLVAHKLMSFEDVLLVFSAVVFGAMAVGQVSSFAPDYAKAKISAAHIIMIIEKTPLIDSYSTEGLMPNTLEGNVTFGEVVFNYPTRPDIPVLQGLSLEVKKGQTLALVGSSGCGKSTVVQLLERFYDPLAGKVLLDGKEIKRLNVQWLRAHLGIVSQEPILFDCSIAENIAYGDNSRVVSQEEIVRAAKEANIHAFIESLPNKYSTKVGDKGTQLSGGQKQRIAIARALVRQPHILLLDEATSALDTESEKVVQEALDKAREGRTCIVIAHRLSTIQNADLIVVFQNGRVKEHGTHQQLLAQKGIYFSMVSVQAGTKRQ

Row | Structure (SMILES) | Ability to inhibit Pgp-mediated cell efflux of R123 (in words) (human Pgp [1]) | other results
1 | C=CCc1ccccc1OCC(O)CNC(C)C (centres unmarked) [Alprenolol] | not effective | –
2 | CN(C)CCC=C1c2ccccc2CCc2ccccc21 [Amitriptyline] | – | Pgp inhibitor classification (Pgp): inhibitor
3 | CCN(CC)CCCN(c1ccccc1)C1Cc2ccccc2C1 [Aprindine] | weak inhibitors | –
4 | O=C1CCc2ccc(OCCCCN3CCN(c4cccc(Cl)c4Cl)CC3)cc2N1 [Aripiprazole] | – | Ability to inhibit Pgp-mediated cell efflux of R123 (in words) (human Pgp [2]): efficacious Pgp inhibitors
5 | CC(C)[C@H]1CC[C@H](C(=O)N[C@H](Cc2ccccc2)C(=O)O)CC1 [Nateglinide] | not effective | –
6 | CC1(C)S[C@@H]2[C@H](NC(=O)[C@H](C(=O)O)c3ccsc3)C(=O)N2[C@H]1C(=O)O [Ticarcillin] | not effective | –
7 | [Na+].[Na+].[Na+].[O]=[V]([O-])([O-])[O-] [Vi, Sodium orthovanadate] | – | pIC50 (human Pgp [3]): ~3.15
8 | O=C1Cc2cc(CCN3CCN(c4nsc5ccccc45)CC3)c(Cl)cc2N1 [Ziprasidone] | weak inhibitors | –
